Converted amounts (≈) assume the structure as drawn. The source made the active and inactive calls. The rule behind the calls is not given here.
Legend:
[1] = test system: Salmonella typhimurium; test: Antibacterial activity against Salmonella enterica subsp. enterica serovar Typhimurium; format: functional
[2] = test system: Escherichia coli; test: Antibacterial activity against Escherichia coli; format: functional
[3] = test system: Bacillus subtilis; test: Antibacterial activity against Bacillus subtilis; format: functional
[4] = test system: Staphylococcus aureus; test: Antibacterial activity against Staphylococcus aureus; format: functional
[5] = test system: Aspergillus flavus; test: Antifungal activity against Aspergillus flavus; format: functional
[6] = test system: Fusarium solani; test: Antifungal activity against Fusarium solani; format: functional
[7] = test system: Aspergillus niger; test: Antifungal activity against Aspergillus niger; format: functional
[8] = test system: Candida albicans; test: Antifungal activity against Candida albicans; format: functional
[9] = test system: THP-1; test: Anti-inflammatory activity in Homo sapiens (human) THP1 cells assessed as inhibition of LPS-induced IL6 production at 10 uM incubated for 30 min prior to LPS-challenge measured after 24 hr by ELISA; format: functional
[10] = test system: THP-1; test: Anti-inflammatory activity in Homo sapiens (human) THP1 cells assessed as inhibition of LPS-induced TNFalpha production at 10 uM incubated for 30 min prior to LPS-challenge measured after 24 hr by ELISA; format: functional
[11] = test system: Escherichia coli; test: Ratio of ciprofloxacin MIC to compound MIC for Escherichia coli; format: functional
[12] = test system: Staphylococcus aureus; test: Ratio of ciprofloxacin MIC to compound MIC for Staphylococcus aureus; format: functional
[13] = test system: Bacillus subtilis; test: Ratio of ciprofloxacin MIC to compound MIC for Bacillus subtilis; format: functional
[14] = test system: Salmonella typhimurium; test: Ratio of ciprofloxacin MIC to compound MIC for Salmonella enterica subsp. enterica serovar Typhimurium; format: functional
[15] = test system: Bacillus subtilis; test: Antibacterial activity against Bacillus subtilis up to 200 ug/ml; format: functional, organism-based
[16] = test system: Staphylococcus aureus; test: Antibacterial activity against Staphylococcus aureus up to 200 ug/ml; format: functional, organism-based
[17] = test system: Aspergillus flavus; test: Antifungal activity against Aspergillus flavus up to 200 ug/ml; format: functional, organism-based
[18] = test system: Fusarium solani; test: Antifungal activity against Fusarium solani up to 200 ug/ml; format: functional, organism-based
[19] = test system: Aspergillus niger; test: Antifungal activity against Aspergillus niger up to 200 ug/ml; format: functional, organism-based
[20] = test system: Candida albicans; test: Antifungal activity against Candida albicans up to 200 ug/ml; format: functional, organism-based
[21] = test system: Aspergillus flavus; test: Antifungal activity against Aspergillus flavus relative to miconazole; format: functional
[22] = test system: Fusarium solani; test: Antifungal activity against Fusarium solani relative to miconazole; format: functional
[23] = test system: Aspergillus niger; test: Antifungal activity against Aspergillus niger relative to miconazole; format: functional
[24] = test system: Candida albicans; test: Antifungal activity against Candida albicans relative to miconazole; format: functional

SMILES | MIC [1] [µg/mL] | MIC [2] [µg/mL] | MIC [3] [µg/mL] | MIC [4] [µg/mL] | MIC [5] [µg/mL] | MIC [6] [µg/mL] | MIC [7] [µg/mL] | MIC [8] [µg/mL] | inhibition at 10 µM [9] [%] | inhibition at 10 µM [10] [%] | further results
O=C(O)c1cn(C2CC2)c2cc(N3CCNCC3)c(F)cc2c1=O [CIPROFLOXACIN] | 25 (≈ 75.4 µM) | 20 (≈ 60.4 µM) | 25 (≈ 75.4 µM) | 20 (≈ 60.4 µM) |  |  |  |  |  |  | 
Clc1ccc(COC(Cn2ccnc2)c2ccc(Cl)cc2Cl)c(Cl)c1 (centres undefined) [MICONAZOLE] |  |  |  |  | 20 (≈ 48.1 µM) | 15 (≈ 36 µM) | 20 (≈ 48.1 µM) | 25 (≈ 60.1 µM) |  |  | 
CCOC(=O)C1=C(C)NC(C)=C(C(=O)OCC)C1c1ccc(NC(=O)Nc2ccc(F)cc2F)cc1 | 25 (≈ 50 µM) | 25 (≈ 50 µM) | 50 (≈ 100 µM) | 45 (≈ 90.1 µM) | 35 (≈ 70.1 µM) | 20 (≈ 40 µM) | 20 (≈ 40 µM) | 35 (≈ 70.1 µM) | 54 | 28 | Ratio [11]: 2; Ratio [12]: 2; Ratio [13]: 2; Ratio [14]: 2
CCOC(=O)C1=C(C)NC(C)=C(C(=O)OCC)C1c1ccc(NC(=O)Nc2cc(F)ccc2F)cc1 | 90 (≈ 180 µM) | 70 (≈ 140 µM) |  |  |  |  | 90 (≈ 180 µM) | 85 (≈ 170 µM) | 96 | 78 | Activity [15]: inactive; Activity [16]: inactive; Activity [17]: inactive; Activity [18]: inactive
CCOC(=O)C1=C(C)NC(C)=C(C(=O)OCC)C1c1ccc(NC(=O)Nc2ccc(C(F)(F)F)cc2)cc1 | 90 (≈ 169 µM) | 90 (≈ 169 µM) | 85 (≈ 160 µM) | 60 (≈ 113 µM) | 70 (≈ 132 µM) | 90 (≈ 169 µM) | 55 (≈ 103 µM) | 45 (≈ 84.7 µM) | 86 | 74 | 
CCOC(=O)C1=C(C)NC(C)=C(C(=O)OCC)C1c1ccc([N+](=O)[O-])cc1 | 90 (≈ 240 µM) | 90 (≈ 240 µM) |  | 90 (≈ 240 µM) |  | 90 (≈ 240 µM) |  |  | 0 | 0 | Activity [19]: inactive; Activity [20]: inactive; Activity [15]: inactive; Activity [17]: inactive
CCOC(=O)C1=C(C)NC(C)=C(C(=O)OCC)C1c1ccc(NC(=O)Nc2cc(Cl)ccc2Cl)cc1 | 15 (≈ 28.2 µM) | 15 (≈ 28.2 µM) | 25 (≈ 47 µM) | 15 (≈ 28.2 µM) | 20 (≈ 37.6 µM) | 10 (≈ 18.8 µM) | 30 (≈ 56.3 µM) | 10 (≈ 18.8 µM) | 51 | 36 | Activity [21]: >50%; Activity [22]: >50%; Activity [23]: >50%; Activity [24]: >50%
CCOC(=O)C1=C(C)NC(C)=C(C(=O)OCC)C1c1ccc(NC(=O)Nc2ccc(C#N)cc2)cc1 | 10 (≈ 20.5 µM) | 15 (≈ 30.7 µM) | 10 (≈ 20.5 µM) | 10 (≈ 20.5 µM) | 20 (≈ 40.9 µM) | 25 (≈ 51.2 µM) | 10 (≈ 20.5 µM) | 20 (≈ 40.9 µM) | 8 | 0 | Activity [21]: >50%; Activity [22]: >50%; Activity [23]: >50%; Activity [24]: >50%; Ratio [11]: 2; Ratio [12]: 2; Ratio [13]: 2; Ratio [14]: 2
